# What was measured:
# [1] = molecular target: T1, HiBiT-BRM fusion protein in stable HeLa cell line (Homo sapiens, UniProt P51531); experiment: HiBiT-BRM cell-based degradation assay (Nano-Glo HiBiT Lytic Detection, 24 h); set-up: DC50: scale not given here; conditions: HeLa HiBiT-BRM cells; for DC50: read-out: BRM HiBit Degradation IC50; for BRM HiBit Degradation Maximum (%): top dose 30 μM
# T1 construct: expressed in transfected cells
# Summary of the method: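 Stable HiBiT-BRM HeLa cells treated 24 h with 10-point 3-fold dilutions, top final dose 30 μM, in duplicate. Luminescence read after lytic LgBiT reagent. Percent degradation was normalised to DMSO (high control) and 2 μM reference BRM/BRG1 degrader (low control).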
# [2] = molecular target: T2, HiBit-BRG1 fusion protein in stable HeLa cell line expressing HiBit-BRG1 and LgBit (Homo sapiens, UniProt P51532); experiment: HiBiT-BRG1 cell-based degradation assay (Nano-Glo HiBiT, 24 h); conditions: HeLa HiBit-BRG1/LgBit cells; for Dmax: top dose 30 μM, read-out: BRG1 HiBit Degradation Maximum (%); for DC50: read-out: BRMG1 HiBit Degradation IC50
# T2 construct: expressed in transfected cells
# T2 sequence (P51532 whole entry, the tested form may be a part): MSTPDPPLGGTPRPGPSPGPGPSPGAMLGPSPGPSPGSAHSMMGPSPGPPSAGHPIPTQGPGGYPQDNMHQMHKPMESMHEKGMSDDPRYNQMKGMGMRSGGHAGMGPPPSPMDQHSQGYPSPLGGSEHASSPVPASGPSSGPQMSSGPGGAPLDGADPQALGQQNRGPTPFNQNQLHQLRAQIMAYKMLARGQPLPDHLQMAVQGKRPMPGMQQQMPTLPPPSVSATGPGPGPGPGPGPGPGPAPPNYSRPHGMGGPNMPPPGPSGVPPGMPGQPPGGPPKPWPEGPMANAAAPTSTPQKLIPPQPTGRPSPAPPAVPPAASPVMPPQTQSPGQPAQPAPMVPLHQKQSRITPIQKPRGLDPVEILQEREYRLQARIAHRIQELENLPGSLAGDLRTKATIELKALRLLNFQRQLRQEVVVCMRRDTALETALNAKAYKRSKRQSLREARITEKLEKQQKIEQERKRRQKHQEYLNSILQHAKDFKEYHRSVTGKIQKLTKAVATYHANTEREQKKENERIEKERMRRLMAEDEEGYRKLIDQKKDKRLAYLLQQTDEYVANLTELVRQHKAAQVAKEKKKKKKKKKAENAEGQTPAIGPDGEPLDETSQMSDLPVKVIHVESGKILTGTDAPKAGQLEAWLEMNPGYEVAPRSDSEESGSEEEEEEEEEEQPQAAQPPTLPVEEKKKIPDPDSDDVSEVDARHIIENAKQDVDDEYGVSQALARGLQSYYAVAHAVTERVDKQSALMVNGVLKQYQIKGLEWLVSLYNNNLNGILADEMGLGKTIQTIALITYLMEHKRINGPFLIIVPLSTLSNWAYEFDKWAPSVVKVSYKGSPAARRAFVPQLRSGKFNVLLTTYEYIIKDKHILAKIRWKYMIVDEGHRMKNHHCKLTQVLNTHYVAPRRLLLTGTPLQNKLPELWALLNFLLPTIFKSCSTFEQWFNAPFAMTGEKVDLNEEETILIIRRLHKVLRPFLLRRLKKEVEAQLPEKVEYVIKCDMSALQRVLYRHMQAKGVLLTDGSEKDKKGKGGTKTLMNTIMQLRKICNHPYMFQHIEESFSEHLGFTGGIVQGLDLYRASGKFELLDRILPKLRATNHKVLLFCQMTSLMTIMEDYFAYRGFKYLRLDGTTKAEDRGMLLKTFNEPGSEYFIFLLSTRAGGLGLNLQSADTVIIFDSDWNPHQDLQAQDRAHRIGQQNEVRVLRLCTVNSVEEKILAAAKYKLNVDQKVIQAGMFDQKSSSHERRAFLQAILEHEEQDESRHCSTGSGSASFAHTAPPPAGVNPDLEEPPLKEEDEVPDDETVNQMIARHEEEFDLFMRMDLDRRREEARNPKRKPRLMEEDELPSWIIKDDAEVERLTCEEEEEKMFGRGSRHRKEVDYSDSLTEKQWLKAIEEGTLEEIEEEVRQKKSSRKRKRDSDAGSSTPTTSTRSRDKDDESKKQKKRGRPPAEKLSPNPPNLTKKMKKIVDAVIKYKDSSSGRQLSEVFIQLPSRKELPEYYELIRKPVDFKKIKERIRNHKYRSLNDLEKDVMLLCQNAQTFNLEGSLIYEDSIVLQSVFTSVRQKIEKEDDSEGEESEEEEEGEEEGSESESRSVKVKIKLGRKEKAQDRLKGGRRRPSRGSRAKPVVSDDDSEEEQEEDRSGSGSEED
# Summary of the method: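 Stable HeLa line co-expressing HiBiT-BRG1 and LgBiT, compound-treated 24 h; luminescence read after Nano-Glo HiBiT lytic reagent. % degradation normalised between DMSO (high control) and 2 μM reference BRM/BRG1 degrader (low control).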
# T1 sequence (P51531 whole entry, the tested form may be a part): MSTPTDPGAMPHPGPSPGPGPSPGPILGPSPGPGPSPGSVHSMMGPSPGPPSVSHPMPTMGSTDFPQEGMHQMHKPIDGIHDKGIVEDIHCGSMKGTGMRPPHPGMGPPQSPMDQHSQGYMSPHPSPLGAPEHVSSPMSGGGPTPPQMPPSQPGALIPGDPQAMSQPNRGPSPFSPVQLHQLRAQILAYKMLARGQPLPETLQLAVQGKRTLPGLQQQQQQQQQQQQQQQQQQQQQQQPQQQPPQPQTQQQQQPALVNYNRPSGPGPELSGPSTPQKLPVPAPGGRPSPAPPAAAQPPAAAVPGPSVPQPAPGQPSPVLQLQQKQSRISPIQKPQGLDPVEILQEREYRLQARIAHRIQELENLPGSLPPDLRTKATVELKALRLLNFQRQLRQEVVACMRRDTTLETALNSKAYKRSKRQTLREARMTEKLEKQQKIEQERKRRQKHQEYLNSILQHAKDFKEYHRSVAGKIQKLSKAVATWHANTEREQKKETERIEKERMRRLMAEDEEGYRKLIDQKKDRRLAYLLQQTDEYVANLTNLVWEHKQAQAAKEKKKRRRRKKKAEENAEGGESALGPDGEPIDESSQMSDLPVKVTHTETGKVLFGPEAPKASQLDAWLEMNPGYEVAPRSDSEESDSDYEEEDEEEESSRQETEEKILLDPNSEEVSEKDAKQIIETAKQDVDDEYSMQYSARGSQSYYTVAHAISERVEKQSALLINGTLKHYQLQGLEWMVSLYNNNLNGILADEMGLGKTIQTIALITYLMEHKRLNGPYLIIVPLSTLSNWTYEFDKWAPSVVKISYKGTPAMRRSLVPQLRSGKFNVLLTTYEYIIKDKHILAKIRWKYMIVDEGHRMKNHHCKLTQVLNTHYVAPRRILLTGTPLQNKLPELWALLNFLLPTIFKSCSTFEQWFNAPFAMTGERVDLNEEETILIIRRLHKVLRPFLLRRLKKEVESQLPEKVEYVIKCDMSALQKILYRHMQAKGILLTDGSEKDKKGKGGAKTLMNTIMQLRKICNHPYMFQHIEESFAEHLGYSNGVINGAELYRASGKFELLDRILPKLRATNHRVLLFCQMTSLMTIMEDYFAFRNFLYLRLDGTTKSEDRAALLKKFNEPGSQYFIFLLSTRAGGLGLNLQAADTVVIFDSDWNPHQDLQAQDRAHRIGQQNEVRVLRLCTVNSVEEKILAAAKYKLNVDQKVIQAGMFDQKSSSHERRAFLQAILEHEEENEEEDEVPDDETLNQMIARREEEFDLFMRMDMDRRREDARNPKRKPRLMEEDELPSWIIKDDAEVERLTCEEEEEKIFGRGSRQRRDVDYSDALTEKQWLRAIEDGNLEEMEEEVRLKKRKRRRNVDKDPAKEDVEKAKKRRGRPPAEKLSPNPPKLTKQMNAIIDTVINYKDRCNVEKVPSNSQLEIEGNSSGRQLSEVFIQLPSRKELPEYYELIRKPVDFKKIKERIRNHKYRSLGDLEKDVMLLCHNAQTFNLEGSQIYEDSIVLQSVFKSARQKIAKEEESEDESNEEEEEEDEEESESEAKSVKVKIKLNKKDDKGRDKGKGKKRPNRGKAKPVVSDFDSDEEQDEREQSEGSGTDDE
Structure (SMILES),DC50 [1] [µM],Dmax [2] [%],DC50 [2] [µM],BRM HiBit Degradation Maximum (%) [1]
"Cc1ncsc1-c1ccc([C@H](C)NC(=O)[C@@H]2C[C@@H](O)CN2C(=O)[C@@H](c2cc(-c3ccc4nnc(-c5cccc(F)c5O)cc4c3)no2)C(C)C)cc1 [Compound 143, (2S,4R)-1-((R)-2-(3-(3-(3-fluoro-2-hydroxyphenyl)cinnolin-6-yl)isoxazol-5-yl)-3-methylbutanoyl)-4-hydroxy-N-((S)-1-(4-(4-methylthiazol-5-yl)phenyl)ethyl)pyrrolidine-2-carboxamide]",< 0.01,< 50,,A (“A” indicates maximum degradation ≥75%)
"Cc1ncsc1-c1ccc([C@H](C)NC(=O)[C@@H]2C[C@@H](O)CN2C(=O)[C@@H](c2cc(N3CC4(CN(c5cc(C)c6cc(-c7ccccc7O)nnc6c5)C4)C3)no2)C(C)C)cc1 [Compound 145, (2S,4R)-4-hydroxy-1-((R)-2-(3-(6-(3-(2-hydroxyphenyl)-5-methylcinnolin-7-yl)-2,6-diazaspiro[3.3]heptan-2-yl)isoxazol-5-yl)-3-methylbutanoyl)-N-((S)-1-(4-(4-methylthiazol-5-yl)phenyl)ethyl)pyrrolidine-2-carboxamide]",< 0.01,< 50,,A (“A” indicates maximum degradation ≥75%)
"Cc1ncsc1-c1ccc([C@H](C)NC(=O)[C@@H]2C[C@@H](O)CN2C(=O)[C@@H](c2cc(N3CCOC4(CCN(c5ccc6cc(-c7ccccc7O)nnc6c5)CC4)C3)no2)C(C)C)cc1 [Compound 148, (2S,4R)-4-hydroxy-1-((R)-2-(3-(9-(3-(2-hydroxyphenyl)cinnolin-7-yl)-1-oxa-4,9-diazaspiro [5.5]undecan-4-yl)isoxazol-5-yl)-3-methylbutanoyl)-N-((S)-1-(4-(4-methylthiazol-5-yl)phenyl)ethyl)pyrrolidine-2-carboxamide]",< 0.01,> 75,< 0.01,A (“A” indicates maximum degradation ≥75%)
"Cc1cc2nnc(-c3ccccc3O)cc2cc1-c1cc([C@H](C(=O)N2C[C@H](O)C[C@H]2C(=O)N[C@@H](C)c2ccc(-c3scnc3C)cc2)C(C)C)on1 [Compound 149, (2S,4R)-4-hydroxy-1-((R)-2-(3-(3-(2-hydroxyphenyl)-7-methylcinnolin-6-yl)isoxazol-5-yl)-3-methylbutanoyl)-N-((S)-1-(4-(4-methylthiazol-5-yl)phenyl)ethyl)pyrrolidine-2-carboxamide]",< 0.01,> 50,> 0.01,A (“A” indicates maximum degradation ≥75%)
"Cc1ncsc1-c1ccc([C@H](C)NC(=O)[C@@H]2C[C@@H](O)CN2C(=O)[C@H](C(C)C)n2cc(-c3ccc4nnc(-c5cccc(F)c5O)cc4c3)nn2)cc1 [Compound 150, (2S,4R)-1-((S)-2-(4-(3-(3-fluoro-2-hydroxyphenyl)cinnolin-6-yl)-1H-1,2,3-triazol-1-yl)-3-methylbutanoyl)-4-hydroxy-N-((S)-1-(4-(4-methylthiazol-5-yl)phenyl)ethyl)pyrrolidine-2-carboxamide]",< 0.01,> 75,< 0.01,A (“A” indicates maximum degradation ≥75%)
"Cc1ncsc1-c1ccc([C@H](C)NC(=O)[C@@H]2C[C@@H](O)CN2C(=O)[C@@H](c2cc(N3CC4(C3)CN(c3cc5cc(-c6ccccc6O)nnc5cc3C3CC3)C4)no2)C(C)C)cc1 [Compound 152, (2S,4R)-1-((R)-2-(3-(6-(7-cyclopropyl-3-(2-hydroxyphenyl)cinnolin-6-yl)-2,6-diazaspiro[3.3]heptan-2-yl)isoxazol-5-yl)-3-methylbutanoyl)-4-hydroxy-N-((S)-1-(4-(4-methylthiazol-5-yl)phenyl)ethyl)pyrrolidine-2-carboxamide]",< 0.01,> 75,< 0.01,A (“A” indicates maximum degradation ≥75%)
"Cc1ncsc1-c1ccc([C@H](C)NC(=O)[C@@H]2C[C@@H](O)CN2C(=O)[C@@H](c2cc(N3CCC4(CC3)CN(c3ccc5cc(-c6ccccc6O)nnc5c3)CCN4C)no2)C(C)C)cc1 [Compound 153, (2S,4R)-4-hydroxy-1-((R)-2-(3-(4-(3-(2-hydroxyphenyl)cinnolin-7-yl)-1-methyl-1,4,9-triazaspiro[5.5]undecan-9-yl)isoxazol-5-yl)-3-methylbutanoyl)-N-((S)-1-(4-(4-methylthiazol-5-yl)phenyl)ethyl)pyrrolidine-2-carboxamide]",< 0.01,< 50,,A (“A” indicates maximum degradation ≥75%)

# Second part, led by results:
DC50 [1] [µM],Dmax [2] [%],DC50 [2] [µM],Structure (SMILES),BRM HiBit Degradation Maximum (%) [1]
< 0.01,> 75,> 0.01,"COC[C@@H]1CN(c2cc(C(C(=O)N3C[C@H](O)C[C@H]3C(=O)N[C@@H](C)c3ccc(-c4scnc4C)cc3)C(C)C)on2)CCN1c1ccc2nnc(-c3ccccc3O)cc2c1 (stereo partly drawn) [Compound 144, (2S,4R)-4-hydroxy-1-(2-(3-((S)-4-(3-(2-hydroxyphenyl)cinnolin-6-yl)-3-(methoxymethyl)piperazin-1-yl)isoxazol-5-yl)-3-methylbutanoyl)-N-((S)-1-(4-(4-methylthiazol-5-yl)phenyl)ethyl)pyrrolidine-2-carboxamide]",A (“A” indicates maximum degradation ≥75%)
< 0.01,> 75,> 0.01,"Cc1ncsc1-c1ccc([C@H](C)NC(=O)[C@@H]2C[C@@H](O)CN2C(=O)[C@@H](c2cc(N3CCOC4(CN(c5ccc6nnc(-c7ccccc7O)cc6c5)C4)C3)no2)C(C)C)cc1 [Compound 146, (2S,4R)-4-hydroxy-1-((R)-2-(3-(2-(3-(2-hydroxyphenyl)cinnolin-6-yl)-5-oxa-2,8-diazaspiro[3.5]nonan-8-yl)isoxazol-5-yl)-3-methylbutanoyl)-N-((S)-1-(4-(4-methylthiazol-5-yl)phenyl)ethyl)pyrrolidine-2-carboxamide]",A (“A” indicates maximum degradation ≥75%)
< 0.01,> 75,> 0.01,"Cc1ncsc1-c1ccc([C@H](C)NC(=O)[C@@H]2C[C@@H](O)CN2C(=O)[C@@H](c2cc(N3CCOC4(CCN(c5ccc6nnc(-c7ccccc7O)cc6c5)CC4)C3)no2)C(C)C)cc1 [Compound 147, (2S,4R)-4-hydroxy-1-((R)-2-(3-(9-(3-(2-hydroxyphenyl)cinnolin-6-yl)-1-oxa-4,9-diazaspiro[5.5]undecan-4-yl)isoxazol-5-yl)-3-methylbutanoyl)-N-((S)-1-(4-(4-methylthiazol-5-yl)phenyl)ethyl)pyrrolidine-2-carboxamide]",A (“A” indicates maximum degradation ≥75%)
< 0.01,< 50,,"Cc1ncsc1-c1ccc([C@H](C)NC(=O)[C@@H]2C[C@@H](O)CN2C(=O)[C@@H](c2cc(N3CCN4CCN(c5ccc6nnc(-c7ccccc7O)cc6c5)CC4C3)no2)C(C)C)cc1 (stereo partly drawn) [Compound 151, (2S,4R)-4-hydroxy-1-((2R)-2-(3-(8-(3-(2-hydroxyphenyl)cinnolin-6-yl)octahydro-2H-pyrazino[1,2-a]pyrazin-2-yl)isoxazol-5-yl)-3-methylbutanoyl)-N-((S)-1-(4-(4-methylthiazol-5-yl)phenyl)ethyl)pyrrolidine-2-carboxamide]",A (“A” indicates maximum degradation ≥75%)
